From article PMC3155278 (ACS Medicinal Chemistry Letters, 2011)

System: REH cells
Assay: Chemotaxis
Type: cell-based
Details: 3 h migration

**Q.** With SDF-1α as the substance, how does the “Lowest concentration inducing migration” value read?
**A.** 10 pM

**Q.** What about the “Concentration at peak of induced migration (chemotaxis peak)” value (bell-shaped dose-response) of the same substance?
**A.** 1 nM
